The target in test [1] is T1, ME-1 (Comamonas testosteroni, UniProt B7WXG5).
T1 construct: gene CtesDRAFT_PD0934
T1 sequence (B7WXG5 2-765): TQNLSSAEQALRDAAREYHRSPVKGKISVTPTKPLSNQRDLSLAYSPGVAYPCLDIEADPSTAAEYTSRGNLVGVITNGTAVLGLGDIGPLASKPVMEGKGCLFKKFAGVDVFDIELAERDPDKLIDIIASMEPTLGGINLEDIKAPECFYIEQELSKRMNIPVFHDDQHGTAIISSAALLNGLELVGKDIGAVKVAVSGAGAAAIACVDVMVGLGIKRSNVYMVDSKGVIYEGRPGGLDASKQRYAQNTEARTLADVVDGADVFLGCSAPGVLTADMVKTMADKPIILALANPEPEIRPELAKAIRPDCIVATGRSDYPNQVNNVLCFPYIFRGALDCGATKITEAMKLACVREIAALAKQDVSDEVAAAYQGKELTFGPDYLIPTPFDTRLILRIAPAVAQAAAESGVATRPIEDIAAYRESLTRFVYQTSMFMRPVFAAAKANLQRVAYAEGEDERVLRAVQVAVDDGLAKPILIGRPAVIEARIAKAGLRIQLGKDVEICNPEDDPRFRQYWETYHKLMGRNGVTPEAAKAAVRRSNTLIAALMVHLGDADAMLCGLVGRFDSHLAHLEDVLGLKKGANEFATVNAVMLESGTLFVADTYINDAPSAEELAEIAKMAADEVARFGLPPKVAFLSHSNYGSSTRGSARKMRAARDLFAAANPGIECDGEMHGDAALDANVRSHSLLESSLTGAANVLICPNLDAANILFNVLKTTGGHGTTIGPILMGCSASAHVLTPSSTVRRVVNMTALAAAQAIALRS
Briefly: NADPH formation at […] nm. To be noted: allosteric activator, 0.5 and 2 mM; 1 mM L-malate, 0.5 mM NADP+, 5 mM MnCl2, pH 7.5, 30 °C.

Test [2] addresses T2, ME-2 (Comamonas testosteroni, UniProt B7X1D4).
T2 construct: gene CtesDRAFT_PD5092
T2 sequence (B7X1D4 2-769): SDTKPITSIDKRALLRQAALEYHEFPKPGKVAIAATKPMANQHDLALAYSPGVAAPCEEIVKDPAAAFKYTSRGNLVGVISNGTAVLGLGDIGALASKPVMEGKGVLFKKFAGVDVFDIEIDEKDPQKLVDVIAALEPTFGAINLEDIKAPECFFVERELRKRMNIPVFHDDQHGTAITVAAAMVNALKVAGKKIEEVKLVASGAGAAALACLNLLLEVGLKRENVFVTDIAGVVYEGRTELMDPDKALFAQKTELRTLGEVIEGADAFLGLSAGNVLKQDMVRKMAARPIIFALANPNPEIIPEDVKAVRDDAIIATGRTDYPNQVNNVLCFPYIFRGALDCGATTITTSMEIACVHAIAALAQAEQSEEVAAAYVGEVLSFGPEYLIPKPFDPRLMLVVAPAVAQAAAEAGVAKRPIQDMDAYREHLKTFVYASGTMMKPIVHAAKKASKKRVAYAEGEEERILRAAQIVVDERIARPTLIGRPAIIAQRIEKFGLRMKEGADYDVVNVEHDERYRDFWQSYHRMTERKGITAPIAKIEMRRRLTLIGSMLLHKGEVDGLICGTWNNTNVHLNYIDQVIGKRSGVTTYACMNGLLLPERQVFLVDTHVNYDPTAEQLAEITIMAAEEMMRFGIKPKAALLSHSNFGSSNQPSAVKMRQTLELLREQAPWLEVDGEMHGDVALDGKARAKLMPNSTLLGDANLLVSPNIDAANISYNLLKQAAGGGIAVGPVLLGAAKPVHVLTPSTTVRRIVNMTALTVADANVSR
The test is described as follows: NADH formation at […] nm. Particulars: 0.5 and 2 mM, 1 mM L-malate, 0.5 mM NAD+, 5 mM MnCl2, pH 7.5, 30 °C.

In test [3] the target is T3, PEPs (PEP synthase) (Comamonas testosteroni, UniProt B7X5R8).
T3 construct: gene CtesDRAFT_PD3828; N-terminal His tag with TEV site, start codon removed; recombinant in E. coli BL21 (DE3), Ni-NTA
T3 sequence (B7X5R8 2-796): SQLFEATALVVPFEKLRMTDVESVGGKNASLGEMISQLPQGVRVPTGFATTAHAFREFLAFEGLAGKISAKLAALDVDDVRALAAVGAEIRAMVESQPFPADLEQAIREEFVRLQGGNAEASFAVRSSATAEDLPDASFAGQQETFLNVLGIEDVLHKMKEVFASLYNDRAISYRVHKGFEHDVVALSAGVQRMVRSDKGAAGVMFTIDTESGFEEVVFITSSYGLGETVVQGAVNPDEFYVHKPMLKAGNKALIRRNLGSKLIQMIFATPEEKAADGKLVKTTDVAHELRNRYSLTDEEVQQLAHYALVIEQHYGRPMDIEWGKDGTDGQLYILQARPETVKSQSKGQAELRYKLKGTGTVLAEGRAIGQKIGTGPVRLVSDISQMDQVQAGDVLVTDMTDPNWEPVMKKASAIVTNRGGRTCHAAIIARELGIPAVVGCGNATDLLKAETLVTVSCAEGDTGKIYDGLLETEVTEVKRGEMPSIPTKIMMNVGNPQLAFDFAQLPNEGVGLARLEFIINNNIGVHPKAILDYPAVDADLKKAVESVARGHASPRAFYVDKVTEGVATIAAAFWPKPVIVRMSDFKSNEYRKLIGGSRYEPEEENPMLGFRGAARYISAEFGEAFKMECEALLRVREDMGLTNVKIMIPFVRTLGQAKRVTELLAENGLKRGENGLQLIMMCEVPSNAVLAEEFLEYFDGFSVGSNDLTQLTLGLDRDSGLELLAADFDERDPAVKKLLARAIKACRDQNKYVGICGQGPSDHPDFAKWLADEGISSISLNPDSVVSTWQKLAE
The test is described as follows: pyruvate consumption by HPLC-RI. It counts as biochemical. Particulars: allosteric inhibitor, 2 or 5 mM (printed as 'up to'); 1 mM pyruvate, 1.5 mM ATP, 5 mM MgCl2, pH 7.5, 30 °C.

In test [4] the target is T4, PobA (4HB 3-monooxygenase) (Comamonas testosteroni, UniProt B7WVQ9).
T4 construct: gene CtesDRAFT_PD2627; N-terminal His tag with TEV site, start codon removed; recombinant in E. coli BL21 (DE3), Ni-NTA
Briefly: NAD(P)H oxidation at […] nm. Type of test: biochemical. To be noted: 10 mM 4HB, 5 mM MgCl2, pH 7.5, 30 °C.

The target in test [5] is T5, Mdh (Comamonas testosteroni, UniProt A0A096F047).
T5 construct: gene mdh_1; C-terminal His tag, start and stop codons deleted; recombinant in E. coli BL21 (DE3), Ni-NTA
Briefly: NAD(P)H oxidation at […] nm. Particulars: 10 mM oxaloacetate, 5 mM MgCl2, pH 7.5, 30 °C. It counts as biochemical.

T5 sequence (A0A096F047 2-329): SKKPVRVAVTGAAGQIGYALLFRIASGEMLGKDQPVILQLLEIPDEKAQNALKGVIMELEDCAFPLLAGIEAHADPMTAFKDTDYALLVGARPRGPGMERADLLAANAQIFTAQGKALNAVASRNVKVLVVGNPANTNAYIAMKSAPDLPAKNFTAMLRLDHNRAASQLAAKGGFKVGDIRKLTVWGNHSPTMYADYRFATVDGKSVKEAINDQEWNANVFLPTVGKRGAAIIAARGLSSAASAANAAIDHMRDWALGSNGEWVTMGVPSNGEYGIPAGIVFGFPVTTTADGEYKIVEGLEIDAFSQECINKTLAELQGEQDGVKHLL

`O=C(O)CCC(=O)O` [succinate]: the “relative activity (%)” value in test [1] is “moderate activation in the presence of succinate and glutamate”; in test [2] (allosteric activator), “moderate activation in the presence of succinate and glutamate”.

With `O=C(O)CCC(=O)C(=O)O` [αKG], in test [3], the “% decrease in pyruvate consumption” value was ~ 35%. For the same compound, the “relative activity (%)” value in test [2] (allosteric inhibitor) was “only high concentrations of αKG had a significant inhibitory impact on ME-2”.

On to `NC(=O)C1=CN([C@@H]2O[C@H](COP(=O)(O)OP(=O)(O)OC[C@H]3O[C@@H](n4cnc5c(N)ncnc54)[C@H](OP(=O)(O)O)[C@@H]3O)[C@@H](O)[C@H]2O)C=CC1` [NADPH], for which the “NAD(P)H oxidation at 340 nm” value in test [4] is “NADPH was the cofactor for PobA and for ME-1, IDH1 and IDH2”.

Regarding `NC(=O)C1=CN([C@@H]2O[C@H](COP(=O)(O)OP(=O)(O)OC[C@H]3O[C@@H](n4cnc5c(N)ncnc54)[C@H](O)[C@@H]3O)[C@@H](O)[C@H]2O)C=CC1` [NADH], the “NAD(P)H oxidation at 340 nm” value in test [5] was “NADH was the preferred cofactor for ME-2 and Mdh”.

(Values after PMC10154247, “Complex regulation in a Comamonas platform for diverse aromatic carbon metabolism” (Nature Chemical Biology, 2023).)
